Among the test systems are CCRF-CEM; NCI-H226; SK-OV-3; SW-620; UACC-257; T47D; HCC 2998; HOP-62; MDA-MB-435; HL-60; K562; M14; Hs-578T; A498; KM12; OVCAR-4; ACHN; NCI-H522; SNB-19.
What all share (experiment): NCI tumour cell line growth inhibition, 48 h

The source of these data is ChEMBL document CHEMBL1201862, “PubChem BioAssay data set” (2004).

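All cell lines were grown in 96-well plates and treated with compound for 48 hours. GI50: concentration for 50% inhibition of growth.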 Active and inactive are the calls of the source. No stated cut-off is given here; in the data, active = GI50 up to about 1.1 µM and inactive = higher. *1 amine or outer side, *2 acyl side, *3 side chain or, on linkers, in order; H or OH if unused. Where a SMILES comes first, the peptide text is derived from it. Bridges are numbered along the chain shown (N, C = ends). Roman numbers before positions name the chains, in order. [ ]: non-standard residue; d: D form. Actinocin(1to9) = Cc1c2oc3c(C)ccc(C(=O)[*:2])c3nc-2c(C(=O)[*:1])c(N)c1=O; NMeV = CN[CH](C(=O)O)C(C)C; Sar = CNCC(=O)O

Consider `O=C(Nc1nn(C(=O)c2cccnc2)c(=O)s1)c1ccc(Cl)cc1`, for which the GI50 with CCRF-CEM was 34 µM (inactive); with NCI-H226 it was 22.5 µM (inactive); in the assay on SK-OV-3, 56.2 µM (inactive); with SW-620, > 100 µM (inactive); in the assay with UACC-257, > 100 µM (inactive); in the assay on T47D, 27 µM (inactive). Further, the GI50 in the assay with HCC 2998 was > 100 µM (inactive); in the assay on HOP-62 it was > 100 µM (inactive); in the assay with MDA-MB-435 it was > 100 µM (inactive); in the assay with HL-60, 60.3 µM (inactive); in the assay on K562, 47.5 µM (inactive); with M14, > 100 µM (inactive). Also, the GI50 is 29.2 µM (inactive) in the assay on Hs-578T; > 100 µM (inactive) in the assay on A498; 61.7 µM (inactive) in the assay with KM12; 84.7 µM (inactive) in the assay on OVCAR-4; > 100 µM (inactive) in the assay on ACHN; 21.7 µM (inactive) in the assay with NCI-H522. Further, the GI50 with SNB-19 was > 100 µM (inactive).
As for `CN(C)/C=N/c1ccc2nonc2c1`, the GI50 in the assay with CCRF-CEM, in the assay on NCI-H226, with SK-OV-3, in the assay on SW-620, with UACC-257 and with T47D was > 100 µM (inactive) throughout. For the same compound, the GI50 with HCC 2998, with HOP-62, with MDA-MB-435, in the assay on HL-60, in the assay on K562 and in the assay with M14 was > 100 µM (inactive) throughout. The GI50 in the assay on Hs-578T, with A498, in the assay on KM12, in the assay with OVCAR-4, in the assay with ACHN and with NCI-H522 was > 100 µM (inactive) in each case. In addition, in the assay with SNB-19, the GI50 is > 100 µM (inactive).
For `C/C(=N/NC(=S)N1CCN(C(=S)N/N=C(/C)c2ccccn2)CC1)c1ccccn1`, the GI50 is 0.682 µM (active) in the assay on CCRF-CEM; 6.89 µM (inactive) in the assay with NCI-H226; 8.3 µM (inactive) in the assay with SK-OV-3; 7 µM (inactive) with SW-620; 16.3 µM (inactive) in the assay with UACC-257; 3.52 µM (inactive) in the assay with T47D. The GI50 with HCC 2998 was 22.5 µM (inactive); in the assay with HOP-62, 10 µM (inactive); in the assay on MDA-MB-435, 28 µM (inactive); with HL-60, 0.352 µM (active); in the assay on K562 it was 16.3 µM (inactive); in the assay with M14, 4.47 µM (inactive). Moreover, the GI50 is > 38 µM (inactive) in the assay with Hs-578T; 8.81 µM (inactive) in the assay on A498; 16.5 µM (inactive) with KM12; 8.2 µM (inactive) in the assay on OVCAR-4; 2.52 µM (inactive) in the assay on ACHN; 7.64 µM (inactive) in the assay on NCI-H522. Also, in the assay on SNB-19, the GI50 is 11.7 µM (inactive).
`COC(=O)c1c(O)ccc2c1c1c(n2C)C(=O)c2ccccc2C1=O`: the GI50 in the assay with CCRF-CEM is 6.37 µM (inactive); in the assay on NCI-H226, 9.02 µM (inactive); in the assay with SK-OV-3 it was 6.19 µM (inactive); in the assay on SW-620 it was 59.4 µM (inactive); in the assay with UACC-257, > 100 µM (inactive); in the assay on T47D it was 3.42 µM (inactive). Moreover, the GI50 in the assay on HCC 2998 was 11.3 µM (inactive); in the assay on HOP-62 it was 14.8 µM (inactive); with MDA-MB-435 it was 33 µM (inactive); in the assay with HL-60 it was > 100 µM (inactive); with K562 it was > 100 µM (inactive); in the assay on M14, 49.2 µM (inactive). Besides, the GI50 with Hs-578T is 6.93 µM (inactive); in the assay on A498, > 100 µM (inactive); in the assay with KM12 it was 57.7 µM (inactive); in the assay on OVCAR-4, 13.6 µM (inactive); with ACHN, 9.29 µM (inactive); in the assay on NCI-H522, 18.4 µM (inactive). Besides, the GI50 with SNB-19 was 16.3 µM (inactive).
Turning to `CCC(C)C1NC(=O)C(NC(=O)c2c3nc4c(C(=O)NC5C(=O)NC(C(C)C)C(=O)N6CCCC6C(=O)N(C)CC(=O)N(C)C(C(C)C)C(=O)OC5C)ccc(C)c4oc-3c(C)c(=O)c2N)C(C)OC(=O)C(C(C)C)N(C)C(=O)CN(C)C(=O)C2CCCN2C1=O` (stereo unspecified) (I: TIP[Sar][NMeV] / II: TVP[Sar][NMeV]; ester I:1-I:C, II:1-II:C; linker I:N-II:N via Actinocin(1to9); configuration not given here), the GI50 in the assay on CCRF-CEM was 0.000421 µM (active); with NCI-H226, 0.0101 µM (active); in the assay on SK-OV-3, 0.0152 µM (active); in the assay on SW-620 it was < 0.0001 µM (active); in the assay with UACC-257 it was 0.00119 µM (active); in the assay on T47D, 0.00183 µM (active). Besides, the GI50 is 0.237 µM (active) in the assay on HCC 2998; 0.000594 µM (active) in the assay with HOP-62; 0.000513 µM (active) in the assay on MDA-MB-435; 0.000513 µM (active) in the assay on HL-60; < 0.0001 µM (active) in the assay with K562; 0.00269 µM (active) in the assay with M14. Besides, the GI50 in the assay on Hs-578T was 0.00546 µM (active); with A498, 0.000197 µM (active); in the assay with KM12 it was 0.00016 µM (active); in the assay with OVCAR-4 it was 0.0102 µM (active); with ACHN, 0.000647 µM (active); in the assay with NCI-H522 it was < 0.0001 µM (active). Further, the GI50 in the assay on SNB-19 is < 0.0001 µM (active).
In the case of `Cc1nc(C)c(N2CCN(C(=O)NC(CCC(=O)O)C(=O)O)CC2)c(O)n1` (stereo unspecified), the GI50 in the assay with CCRF-CEM, with NCI-H226, in the assay on SK-OV-3, with SW-620, with UACC-257 and with T47D was > 100 µM (inactive) throughout. Besides, the GI50 with HCC 2998, in the assay with HOP-62, in the assay on MDA-MB-435, in the assay with HL-60, in the assay with K562 and with M14 was > 100 µM (inactive) each time. Besides, the GI50 in the assay with Hs-578T, in the assay with A498, in the assay with KM12, in the assay on OVCAR-4, in the assay with ACHN and with NCI-H522 was > 100 µM (inactive) each time. The GI50 with SNB-19 is > 100 µM (inactive).
Take `CC(C)OP(=O)(OC(C)C)C(C(C)C)N(C)/C(F)=N/C(F)(F)F` (stereo unspecified): the GI50 in the assay with CCRF-CEM, in the assay on NCI-H226, in the assay on SK-OV-3, in the assay on SW-620, with UACC-257 and in the assay on T47D was > 100 µM (inactive) in each case. Moreover, the GI50 was > 100 µM (inactive) in the assay with HCC 2998; > 100 µM (inactive) in the assay with HOP-62; > 100 µM (inactive) in the assay with MDA-MB-435; 31 µM (inactive) with HL-60; 60.5 µM (inactive) with K562; > 100 µM (inactive) in the assay with M14. Moreover, the GI50 in the assay on Hs-578T, in the assay on A498, with KM12, in the assay with ACHN, with NCI-H522 and in the assay with SNB-19 was > 100 µM (inactive) each time.
Turning to `Cc1ccc(N2C(N)=C(C#N)C(C#N)(C#N)C2c2ccccc2)cc1` (stereo unspecified), the GI50 was 3 µM (inactive) with CCRF-CEM; 19.5 µM (inactive) in the assay on NCI-H226; 16.7 µM (inactive) with SK-OV-3; 4.32 µM (inactive) in the assay with SW-620; 15.6 µM (inactive) with UACC-257; 5.74 µM (inactive) in the assay on T47D. Moreover, the GI50 in the assay with HCC 2998 is 13 µM (inactive); in the assay with HOP-62, 19.5 µM (inactive); in the assay with MDA-MB-435, 4.03 µM (inactive); in the assay with HL-60, 2.75 µM (inactive); in the assay with M14, 12.3 µM (inactive); with Hs-578T it was 21 µM (inactive). The GI50 was 17 µM (inactive) with A498; 17.2 µM (inactive) in the assay with KM12; 13.4 µM (inactive) in the assay on OVCAR-4; 14.2 µM (inactive) in the assay with ACHN; 5.42 µM (inactive) in the assay on NCI-H522; 17.5 µM (inactive) in the assay with SNB-19.
Regarding `CCC(C(=O)C(=O)C(CC)P1(=O)OC(C)(C)CN1C(C)(C)C)P1(=O)OC(C)(C)CN1C(C)(C)C` (stereo unspecified), the GI50 in the assay with CCRF-CEM, with NCI-H226, with SK-OV-3, in the assay with SW-620, in the assay with UACC-257 and in the assay on T47D was > 100 µM (inactive) in each case. In addition, the GI50 in the assay on HCC 2998 is > 100 µM (inactive); with HOP-62 it was > 100 µM (inactive); in the assay on MDA-MB-435, > 100 µM (inactive); in the assay with HL-60, > 100 µM (inactive); in the assay on K562, 31.8 µM (inactive); with M14, > 100 µM (inactive). Besides, the GI50 in the assay with Hs-578T, in the assay with A498, in the assay on KM12, in the assay on ACHN, with NCI-H522 and with SNB-19 was > 100 µM (inactive) in each case.
Turning to `Cc1cccc(-c2cc(O)c3cc(C)cnc3n2)c1`, the GI50 in the assay with CCRF-CEM was 0.202 µM (active); with NCI-H226, 0.238 µM (active); in the assay on SK-OV-3, 0.272 µM (active); in the assay with SW-620 it was 0.0475 µM (active); in the assay with T47D, 6.5 µM (inactive); in the assay with HCC 2998 it was 0.44 µM (active). Also, the GI50 in the assay with HOP-62 was 0.373 µM (active); in the assay on MDA-MB-435, 0.0185 µM (active); in the assay with HL-60, 0.0338 µM (active); in the assay with K562, 0.0411 µM (active); in the assay with M14 it was 0.0998 µM (active); in the assay on Hs-578T, 0.244 µM (active). Also, the GI50 with A498 is 0.372 µM (active); with KM12, 0.0869 µM (active); in the assay on OVCAR-4, 1.95 µM (inactive); with ACHN, 0.532 µM (active); with NCI-H522 it was 0.0955 µM (active); in the assay with SNB-19, 0.366 µM (active).
